From patent US20210386721A1, “SUBSTITUTED PHENYLPROPENYL PYRIDINE DERIVATIVES, THEIR PREPARATION AND PHARMACEUTICAL APPLICATIONS” (SHANGHAI HAIYAN PHARMACEUTICAL TECHNOLOGY CO., LTD., priority 2019, published 2021)

How the values were obtained:
[1] = test system: Jurkat T(PD1 Luc-)/CHOK1(PDL-1); test: Jurkat T(PD1 Luc-)/CHOK1(PDL-1) cell experiment (luciferase reporter); assay type: cell-based; conditions: CHO/PD-L1-OKT3 cells co-cultured with Jurkat/PD1-NFAT-Luc cells for 6 hours; Bio-Glo luciferase signal
Protocol: Assay 2 Jurkat T(PD1 Luc-)/CHOK1(PDL-1) Cell Experiment
G418, Sangon Biotech #A100859-0001, Cat Number G108BA0003, 5 ml of deionized water being added into each bottle, store at 4° C.
CHO/PD-L1-OKT3 cells (constructed by referring to Promega's PD-1/PD-L1 Blockade Bioassays system) cultured in F-12K medium (containing 10% FBS, 800 ug/ml G418, 400 ug/ml D Hygromycin B) were planted into a 96-well plate at 2×10^4 per well, and incubated for 24 hours at 37° C. and 5% CO2. part of the medium was removed, and the test compound dissolved in DMSO with a final concentration of 1 uM was added, and DMSO at the same concentration was added into the control cells. Jurkat/PD1-NFAT-Luc cells (constructed by referring to Promega's PD-1/PD-L1 Blockade Bioassays system) were added at 5×10^5 per well at the same time, and cultured for 6 hours. The corresponding luciferase signal was detected by Bio-Glo™ (Promega, G7940) reagent. The EC50 of each compound to be tested was calculated through the non-linear regression of XLfit software.

[2] = molecular target: T1, PD-1/PD-L1 (Homo sapiens, UniProt Q9NZQ7); test: PD-1/PD-L1 binding assay (HTRF, PPI-HTRF); conditions: HTRF PD1/PD-L1 binding assay kit; 10 nM Tag1-PD-L1; 25° C.
T1 construct: purchased Cisbio 63ADK000CPDPEB
T1 sequence (Q9NZQ7 19-238 limits assumed): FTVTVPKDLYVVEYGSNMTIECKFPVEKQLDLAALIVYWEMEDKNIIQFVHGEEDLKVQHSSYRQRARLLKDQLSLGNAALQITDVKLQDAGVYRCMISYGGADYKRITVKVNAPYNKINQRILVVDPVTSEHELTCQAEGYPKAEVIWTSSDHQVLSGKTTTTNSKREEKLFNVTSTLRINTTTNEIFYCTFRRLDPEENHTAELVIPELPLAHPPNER
Outline: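 HTRF binding assay: compound was mixed with tagged proteins at final concentrations of 10 nM Tag1-PD-L1 and 2 nM PD1 for 15 min at 25 °C. Anti-Tag1-Eu³⁺ and anti-Tag2-XL665 antibodies were then added for 16 h at 25 °C. IC50 was derived from the 665/620 nm emission ratio.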

| Structure (SMILES) | EC50 [1] [nM] | IC50 [2] [nM] |
| --- | --- | --- |
| COc1cc(/C=C/c2cccc(-c3cccc(-c4nc5cc(CN[C@@H](C)CO)cc(C#N)c5o4)c3C)c2C)c(C(F)(F)F)cc1CN1CCCC[C@H]1C(=O)O [Z-41, (S)-1-(4-((E)-2-(3′-(7-cyano-5-((((S)-1-hydroxypropan-2-yl)amino)methyl)benzo[d]oxazol-2-yl)-2,2′-dimethyl-[1,1′-biphenyl]-3-yl)vinyl)-2-methoxy-5-(trifluoromethyl)benzyl) piperidine-2-carboxylic Acid] | 109 | 2 |
| COc1cc(/C=C/c2cccc(-c3cccc(-c4nc5cc(CN6CC[C@@H](C(=O)O)C6)cc(C#N)c5o4)c3Cl)c2C)c(C(F)(F)F)cc1CN1CC[C@@H](O)C1 [Z-42] | 64 | 1 |
| COc1cc(/C=C/c2cccc(-c3cccc(-c4nc5cc(CN6CC[C@@H](O)C6)cc(C#N)c5o4)c3C)c2C#N)c(C(F)(F)F)cc1CN1CC[C@@H](C(=O)O)C1 [Z-43] | 72 | 1 |
| COc1cc(/C=C/c2ccnc(-c3cccc(-c4nc5cc(CN6CC[C@@H](O)C6)cc(C#N)c5o4)c3C)c2C#N)c(C(F)(F)F)cc1CN1CC[C@@H](C(=O)O)C1 [Z-49] | 78 | 1 |
| Cc1cc(/C=C/c2nccc(-c3cccc(-c4nc5cc(CN6CC[C@@H](O)C6)cc(C#N)c5o4)c3C)c2C#N)c(C(F)(F)F)cc1CN1CC[C@@H](C(=O)O)C1 [Z-51] | 56 | 1 |
| COc1cc(/C=C/c2ccnc(-c3cccc(-c4nc5cc(CN6CC[C@@H](O)C6)cc(C#N)c5o4)c3C)c2Cl)c(C(F)(F)F)cc1CN1CC[C@@H](C(=O)O)C1 [Z-52] | 153 | 1 |
| COc1cc(/C=C/c2cccc(-c3cccc(-c4nc5c(C#N)cc(CN6CC[C@@H](C(=O)O)C6)cn5n4)c3C)c2C)c(C(F)(F)F)cc1CN1CC[C@@H](O)C1 [Z-53, (R)-1-((8-cyano-2-(3′-((E)-4-(((R)-3-hydroxypyrrolidin-1-yl)methyl)-5-methoxy-2-(trifluoromethyl)styryl)-2,2′-dimethyl-[1,1′-biphenyl]-3-yl)-[1,2,4]triazolo[1,5-a]pyridin-6-yl)methyl) pyrrolidine-3-carboxylic Acid] | 28 | 1 |
| COc1cc(/C=C/c2cccc(-c3cccc(-c4ccc(CNC[C@@H]5CCC(=O)N5)c(OC)n4)c3C)c2C)c(C(F)(F)F)cc1CN1CC[C@@H](C(=O)O)C1 [Z-54, (R)-1-(2-methoxy-4-((E)-2-(3′-(6-methoxy-5-(((((S)-5-oxopyrrolidin-2-yl)methyl)amino)methyl)pyridin-2-yl)-2,2′-dimethyl-[1,1′-biphenyl]-3-yl)vinyl)-5-(trifluoromethyl)benzyl)pyrrolidine-3-carboxylic Acid] | 149 | 1 |
| COc1cc(/C=C/c2cccc(-c3cccc(-c4cnc(CN5CC[C@@H](O)C5)c(OC)n4)c3C)c2C)c(C(F)(F)F)cc1CN1CC[C@@H](C(=O)O)C1 [Z-57] | 66 | 1 |
| COc1cc(/C=C/c2cccc(-c3cccc(-c4nc5c(c(OC)n4)CN(C[C@@H]4CCC(=O)N4)CC5)c3C)c2C)c(C(F)(F)F)cc1CN1CC[C@@H](C(=O)O)C1 [Z-60, (R)-1-(2-methoxy-4-((E)-2-(3′-(4-methoxy-6-(((S)-5-oxopyrrolidin-2-yl)methyl)-5,6,7,8-tetrahydropyrido[4,3-d]pyrimidin-2-yl)-2,2′-dimethyl-[1,1′-biphenyl]-3-yl)vinyl)-5-(trifluoromethyl)benzyl) pyrrolidine-3-carboxylic Acid] | 79 | 2 |
| COc1cc(/C=C/c2nccc(-c3cccc(NC(=O)c4ccc(CN5CC[C@@H](O)C5)cn4)c3C)c2C#N)c(C(F)(F)F)cc1CN1CC[C@@H](C(=O)O)C1 [Z-74] | 51 | 1 |
| Cc1cc(/C=C/c2nccc(-c3cccc(NC(=O)c4ccc(CN5CC[C@@H](O)C5)cn4)c3Cl)c2C)c(Cl)cc1CN1CC[C@@H](C(=O)O)C1 [Z-76] | 361 | 1 |
| COc1cc(/C=C/c2cccc(-c3cccc(NC(=O)c4ccc(CN5CC[C@@H](O)C5)cn4)c3Cl)c2C)c(C(F)(F)F)cc1CN1CC[C@@H](C(=O)O)C1 [Z-80] | 36 | 1 |
| Cc1cc(/C=C/c2nccc(-c3cccc(NC(=O)c4ccc(CN5CC[C@@H](O)C5)cn4)c3Cl)c2C#N)c(Cl)cc1CN1CCCC[C@H]1C(=O)O [Z-81] | 44 | 1 |
| COc1cc(/C=C/c2cccc(-c3cccc(NC(=O)c4ccc(CN5CC[C@@H](O)C5)cn4)c3Cl)c2C)c(C(F)(F)F)cc1CN1CCCC[C@H]1C(=O)O [Z-82] | 29 | 1 |
| Cc1cc(/C=C/c2nccc(-c3cccc(NC(=O)c4ccc(CN5CC[C@@H](O)C5)cn4)c3C)c2Cl)c(Cl)cc1CN1CCCC[C@H]1C(=O)O [Z-83] | 113 | 1 |
| COc1cc(/C=C/c2cccc(-c3cccc(NC(=O)c4ccc(CN5CC[C@@H](O)C5)cn4)c3C)c2C)c(C(F)(F)F)cc1CN1CC[C@@H](C(=O)O)C1 [Z-84] | 25 | 1 |

| Structure (SMILES) | EC50 [1] [nM] | IC50 [2] [nM] |
| --- | --- | --- |
| COc1cc(/C=C/c2cccc(-c3cccc(NC(=O)c4ccc(CN5CC[C@@H](O)C5)cn4)c3C)c2Cl)c(C(F)(F)F)cc1CN1CC[C@@H](C(=O)O)C1 [Z-85] | 34 | 1 |
| Cc1cc(/C=C/c2cccc(-c3cccc(NC(=O)c4ccc(CN5CC[C@@H](O)C5)cn4)c3C)c2C)c(Cl)cc1CN1CC[C@@H](C(=O)O)C1 [Z-86] | 38 | 1 |
| COc1cc(/C=C/c2cccc(-c3cccc(NC(=O)c4ccc(CN5CC[C@@H](O)C5)cn4)c3Cl)c2C)c(C(F)(F)F)cc1CN1CCC(C)(C(=O)O)C1 (stereo partly drawn) [Z-87, 1-(4-((E)-2-(2′-chloro-3′-(5-(((R)-3-hydroxypyrrolidin-1-yl)methyl)picolinamido)-2-methyl-[1,1′-biphenyl]-3-yl)vinyl)-2-methoxy-5-(trifluoromethyl)benzyl)-3-methylpyrrolidine-3-carboxylic Acid] | 26 | 1 |
| COc1cc(/C=C/c2cccc(-c3cccc(NC(=O)c4ccc(CN5CC[C@@H](O)C5)cn4)c3Cl)c2C)c(C(F)(F)F)cc1CN1CCC(C(=O)O)CC1 [Z-89] | 16 | 1 |
| Cc1cc(/C=C/c2cccc(-c3cccc(NC(=O)c4ccc(CN5CC[C@@H](O)C5)cn4)c3C)c2C)c(C(F)(F)F)cc1CN1CC[C@@H](C(=O)O)C1 [Z-90] | 24 | 1 |
| Cc1cc(/C=C/c2cccc(-c3cccc(NC(=O)c4ccc(CN5CC[C@@H](O)C5)cn4)c3C)c2C)c(C2CC2)cc1CN1CC[C@@H](C(=O)O)C1 [Z-91] | 147 | 1 |
| COc1cc(/C=C/c2cccc(-c3cccc(NC(=O)c4ccc(CN5CC[C@@H](O)C5)cn4)c3Cl)c2C)c(C(F)(F)F)cc1CN1CCC[C@H]1C(=O)O [Z-92] | 6 | 1 |
| COc1cc(/C=C/c2cccc(-c3cccc(NC(=O)c4ccc(CN5CC[C@@H](O)C5)cn4)c3Cl)c2Cl)c(C(F)(F)F)cc1CN1CC[C@@H](C(=O)O)C1 [Z-93] | 8 | 2 |
| COc1cc(/C=C/c2cccc(-c3cccc(NC(=O)c4ccc(CN5CC[C@@H](O)C5)cn4)c3C)c2C#N)c(C(F)(F)F)cc1CN1CC[C@@H](C(=O)O)C1 [Z-94] | 10 | 1 |
| COc1cc(/C=C/c2cccc(-c3cccc(NC(=O)c4ccc(CN5CC[C@@H](O)C5)cn4)c3Cl)c2C#N)c(C(F)(F)F)cc1CN1CC[C@@H](C(=O)O)C1 [Z-95] | 4 | < 1 |
| COc1cc(/C=C/c2cccc(-c3cccc(NC(=O)c4ccc(CN5CC[C@@H](O)C5)cn4)c3F)c2Cl)c(C(F)(F)F)cc1CN1CC[C@@H](C(=O)O)C1 [Z-96] | 10 | < 1 |
| COc1cc(/C=C/c2cccc(-c3cccc(NC(=O)c4ccc(CN5CC[C@@H](O)C5)cn4)c3C)c2C)c(C(F)(F)F)cc1CN1CC[C@H](C(=O)O)C1 [Z-97] | 2 | < 1 |
| COc1cc(/C=C/c2cccc(-c3cccc(NC(=O)c4ccc(CN5CC[C@@H](O)C5)cn4)c3C(F)(F)F)c2C#N)c(C(F)(F)F)cc1CN1CC[C@@H](C(=O)O)C1 [Z-98] | 174 | 2 |
| COc1cc(/C=C/c2cccc(-c3cccc(NC(=O)c4ccc(CN5CC[C@@H](O)C5)cn4)c3Cl)c2F)c(C(F)(F)F)cc1CN1CC[C@@H](C(=O)O)C1 [Z-99] | 35 | < 1 |
| Cc1cc(/C=C/c2nccc(-c3cccc(NC(=O)c4ccc(CN5CC[C@@H](O)C5)cn4)c3C)c2C#N)c(C(F)(F)F)cc1CN1CC[C@@H](C(=O)O)C1 [Z-101] | 122 | 1 |
| COc1cc(/C=C/c2cccc(-c3cccc(NC(=O)c4ccc(CN5CC[C@@H](O)C5)cn4)c3C)c2C)c(C(F)(F)F)cc1CN1CCCC[C@H]1C(=O)O [Z-102] | 9 | 1 |
| COc1cc(/C=C/c2cccc(-c3cccc(NC(=O)c4ccc(CN5CC[C@@H](O)C5)cn4)c3C)c2C)c(C(F)(F)F)cc1CN1CCC(C)(C(=O)O)C1 (some centres unmarked) [Z-103] | 19 | 1 |
